US20200123396A1, “PRODUCTS PRESERVED WITH 5-CHLORO-2-METHYL-4-ISOTHIAZOLIN-3-ONE” (THOR GMBH, priority 2014, published 2020)

What was measured:
[1] = system: microorganisms introduced via the individual components of the paint; assay: microbiological investigations of the preserved emulsion paint; format: cell-based; details: 20 ppm of 5-chloro-2-methylisothiazolin-3-one (2-methylisothiazolin-3-one content <1 wt %) in water-based emulsion paint; growth detectable in individual components
Excerpt: Added to a preservative-free styrene-acrylate dispersion were 20 ppm of 5-chloro-2-methylisothiazolin-3-one, having a 2-methylisothiazolin-3-one content of <1 wt %. The styrene-acrylate dispersion thus preserved was then used for producing a water-based emulsion paint. The composition of the paint produced was as follows: • 25.7 wt % water • 0.2 wt % acrylate-based wetting and dispersing agent • 0.2 wt % mineral oil-based defoamer • 2.0 wt % water softener (sodium polyphosphate) • 0.2 wt % ammonia • 4.0 wt % titanium oxide (pigment) • 51.0 wt % calcium carbonate (filler) • 5.0 wt % talc (filler) • 0.4 wt %% cellulose ether • 2.0 wt % organic solvent for lowering the minimum film-forming temperature • 9.0 wt % the styrene-acrylate dispersion preserved with 20 ppm of 5-chloro-2-methylisothiazolin-3-one • 20 ppm 5-chloro-2-methylisothiazolin-3-one, having a 2-methylisothiazolin-3-one content of <1 wt %

[2] = decomposition of 5-chloro-2-methylisothiazolin-3-one in the emulsion paint by cysteine, HPLC; format: physicochemical; details: after 3 hours, addition of 50 ppm of cysteine based on the emulsion paint
Excerpt: In order, from the emulsion paint, which contained significant quantities of 5-chloro-2-methylisothiazolin-3-one, to produce a paint unobjectionable for allergics in relation to 5-chloro-2-methylisothiazolin-3-one and 2-methylisothiazolin-3-one present therein, to produce, these isothiazolin-3-ones were decomposed by addition of 50 ppm of cysteine, based on the emulsion paint.

[3] = destruction of 2-methylisothiazolin-3-one in an aqueous emulsion paint using sodium thiosulfate; format: physicochemical
Excerpt: A drawback, however, is that according to the method described, the isothiazolinones, and especially the MIT, are not destroyed quantitatively or irreversibly, and so are still always present in the products and derivatives, and may still as before cause problems to persons reacting allergically, and/or may give rise to contact eczemas or aerogenic contact eczemas in persons having a high degree of sensitization.

| Structure (SMILES) | microbial growth in the emulsion paint [1] | detectability of 5-chloro-2-methylisothiazolin-3-one in the emulsion paint by HPLC [2] | destruction of 2-methylisothiazolin-3-one [3] |
| --- | --- | --- | --- |
| Cn1sc(Cl)cc1=O [5-chloro-2-methylisothiazolin-3-one] | no microbial growth | no longer detectable |  |
| Cn1sccc1=O [2-methylisothiazolin-3-one] |  |  | destroyed neither quantitatively nor irreversibly |
